Experimental data reported in publication PMC12775422 (NPJ Biofilms and Microbiomes, 2025).

Biological target: T1, ferredoxin PA1551 (Pseudomonas aeruginosa, UniProt Q9I3G6)
T1 sequence (Q9I3G6 1-471): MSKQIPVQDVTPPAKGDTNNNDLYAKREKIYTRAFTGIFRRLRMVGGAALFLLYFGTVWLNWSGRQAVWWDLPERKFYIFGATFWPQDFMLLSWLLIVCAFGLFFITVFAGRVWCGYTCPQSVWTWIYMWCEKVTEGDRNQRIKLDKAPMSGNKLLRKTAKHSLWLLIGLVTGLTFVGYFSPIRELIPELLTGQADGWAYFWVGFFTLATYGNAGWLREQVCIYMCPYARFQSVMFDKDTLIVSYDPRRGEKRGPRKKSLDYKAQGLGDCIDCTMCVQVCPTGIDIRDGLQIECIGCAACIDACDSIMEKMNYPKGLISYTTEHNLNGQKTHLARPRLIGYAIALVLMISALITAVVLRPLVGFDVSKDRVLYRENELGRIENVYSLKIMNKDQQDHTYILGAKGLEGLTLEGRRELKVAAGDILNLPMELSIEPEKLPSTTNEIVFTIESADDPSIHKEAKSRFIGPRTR
Experiment: microscale thermophoresis
Assay type: binding

**Q.** For `CCCCCCC(=O)NCc1c(O)c(=O)cc(C)n1C` [10d, 2-(heptanamido)methyl 3-hydroxy-1,6-dimethylpyridin-4(1H)-one], which Kd is on record?
**A.** 57 nM
